From patent US9738655B2, “Tetrahydroisoquinolines containing substituted azoles as factor XIa inhibitors” (BRISTOL-MYERS SQUIBB COMPANY, priority 2013, dated 2017)
Where a name gives a salt, the structure may show the parent alone. Read-outs that look alike come from different tables or passages of the source.

Target: purified human Factor XIa (Homo sapiens (Human), UniProt P03951)
Assay: Factor XIa enzyme inhibition assay (chromogenic substrate S-2366)
[1] = read-out: Factor XIa Ki, measured at 25° C.

Sequence of purified human Factor XIa (P03951 388-625): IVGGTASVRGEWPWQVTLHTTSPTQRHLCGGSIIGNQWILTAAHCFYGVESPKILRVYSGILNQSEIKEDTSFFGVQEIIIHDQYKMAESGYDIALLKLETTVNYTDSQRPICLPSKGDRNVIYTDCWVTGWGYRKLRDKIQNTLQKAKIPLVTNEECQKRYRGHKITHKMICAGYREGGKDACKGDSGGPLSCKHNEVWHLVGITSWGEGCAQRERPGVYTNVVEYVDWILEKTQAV
Sequence of purified human Factor XIa (P03951 19-387 partner): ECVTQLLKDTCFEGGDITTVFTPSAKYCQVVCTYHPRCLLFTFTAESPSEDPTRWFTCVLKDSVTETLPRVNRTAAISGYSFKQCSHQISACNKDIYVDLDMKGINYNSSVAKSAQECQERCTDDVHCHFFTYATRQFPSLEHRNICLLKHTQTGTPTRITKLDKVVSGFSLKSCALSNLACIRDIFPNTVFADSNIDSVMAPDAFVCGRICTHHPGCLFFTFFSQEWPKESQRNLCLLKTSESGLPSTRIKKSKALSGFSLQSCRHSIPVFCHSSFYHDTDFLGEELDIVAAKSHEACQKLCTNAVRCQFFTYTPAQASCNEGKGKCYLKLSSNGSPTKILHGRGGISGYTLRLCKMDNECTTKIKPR

| SMILES | Ki [1] | Ki |
| --- | --- | --- |
| COC1CCN(c2cccc3c2CCN(C(=O)c2cc(-c4cccc(F)c4)no2)C3C(=O)Nc2ccc(C(=O)O)cc2)CC1 (stereo not drawn) [Example 152, 4-(2-(3-(3-fluorophenyl)isoxazole-5-carbonyl)-5-(4-methoxypiperidin-1-yl)-1,2,3,4-tetrahydroisoquinoline-1-carboxamido)benzoic acid, TFA salt] | 466 nM | – |
| COc1ncc(-c2cccc3c2CCN(C(=O)c2cn(-c4cccc(Cl)c4F)nn2)C3C(=O)Nc2ccc(C(=O)O)cc2)c(OC)n1 (stereo not drawn) [Example 158, 4-(2-(1-(3-chloro-2-fluorophenyl)-1H-1,2,3-triazole-4-carbonyl)-5-(2,4-dimethoxypyrimidin-5-yl)-1,2,3,4-tetrahydroisoquinoline-1-carboxamido)benzoic acid] | – | < 5 nM |
| NCc1ccc(-c2cccc3c2CCN(C(=O)c2cn(-c4cccc(Cl)c4F)nn2)C3C(=O)Nc2ccc(C(=O)O)cc2)cc1 (stereo not drawn) [Example 163, 4-(5-(4-(aminomethyl)phenyl)-2-(1-(3-chloro-2-fluorophenyl)-1H-1,2,3-triazole-4-carbonyl)-1,2,3,4-tetrahydroisoquinoline-1-carboxamido)benzoic acid, TFA salt] | < 5 nM | – |
| O=C(O)c1ccc(NC(=O)C2c3cccc(-c4cccc(-c5ccn[nH]5)c4)c3CCN2C(=O)c2cn(-c3cccc(Cl)c3F)nn2)cc1 (stereo not drawn) [Example 164, 4-(5-(3-(1H-pyrazol-5-yl)phenyl)-2-(1-(3-chloro-2-fluorophenyl)-1H-1,2,3-triazole-4-carbonyl)-1,2,3,4-tetrahydroisoquinoline-1-carboxamido)benzoic acid] | 9.17 nM | – |
| O=C(O)c1ccc(NC(=O)C2c3cccc(C4=CCOCC4)c3CCN2C(=O)c2cn(-c3cccc(Cl)c3F)nn2)cc1 (stereo not drawn) [Example 165, 4-(2-(1-(3-chloro-2-fluorophenyl)-1H-1,2,3-triazole-4-carbonyl)-5-(3,6-dihydro-2H-pyran-4-yl)-1,2,3,4-tetrahydroisoquinoline-1-carboxamido)benzoic acid] | < 5 nM | – |
| CNC(=O)c1ccc(-c2cccc3c2CCN(C(=O)c2cn(-c4cccc(Cl)c4F)nn2)C3C(=O)Nc2ccc(C(=O)O)cc2)cn1 (stereo not drawn) [Example 166, 4-(2-(1-(3-chloro-2-fluorophenyl)-1H-1,2,3-triazole-4-carbonyl)-5-(6-(methylcarbamoyl)pyridin-3-yl)-1,2,3,4-tetrahydroisoquinoline-1-carboxamido)benzoic acid, TFA salt] | < 5 nM | – |
| Cn1ncc2c(-c3cccc4c3CCN(C(=O)c3cn(-c5cccc(Cl)c5F)nn3)C4C(=O)Nc3ccc(C(=O)O)cc3)cccc21 (stereo not drawn) [Example 169, 4-(2-(1-(3-chloro-2-fluorophenyl)-1H-1,2,3-triazole-4-carbonyl)-5-(1-methyl-1H-indazol-4-yl)-1,2,3,4-tetrahydroisoquinoline-1-carboxamido)benzoic acid] | < 5 nM | – |
| Cn1ncc2ccc(-c3cccc4c3CCN(C(=O)c3cn(-c5cccc(Cl)c5F)nn3)C4C(=O)Nc3ccc(C(=O)O)cc3)cc21 (stereo not drawn) [Example 170, 4-(2-(1-(3-chloro-2-fluorophenyl)-1H-1,2,3-triazole-4-carbonyl)-5-(1-methyl-1H-indazol-6-yl)-1,2,3,4-tetrahydroisoquinoline-1-carboxamido)benzoic acid] | < 5 nM | – |
| Cc1nnc(-c2cccc(-c3cccc4c3CCN(C(=O)c3cn(-c5cccc(Cl)c5F)nn3)C4C(=O)Nc3ccc(C(=O)O)cc3)c2)o1 (stereo not drawn) [Example 171, 4-(2-(1-(3-chloro-2-fluorophenyl)-1H-1,2,3-triazole-4-carbonyl)-5-(3-(5-methyl-1,3,4-oxadiazol-2-yl)phenyl)-1,2,3,4-tetrahydroisoquinoline-1-carboxamido)benzoic acid] | < 5 nM | – |
| CN(C)c1ccc(-c2cccc3c2CCN(C(=O)c2cn(-c4cccc(Cl)c4F)nn2)C3C(=O)Nc2ccc(C(=O)O)cc2)cn1 (stereo not drawn) [Example 172, 4-(2-(1-(3-chloro-2-fluorophenyl)-1H-1,2,3-triazole-4-carbonyl)-5-(6-(dimethylamino)pyridin-3-yl)-1,2,3,4-tetrahydroisoquinoline-1-carboxamido)benzoic acid] | < 5 nM | – |
| NCc1cccc(-c2cccc3c2CCN(C(=O)c2cn(-c4cccc(Cl)c4F)nn2)C3C(=O)Nc2ccc(C(=O)O)cc2)c1 (stereo not drawn) [Example 173, 4-(5-(3-(aminomethyl)phenyl)-2-(1-(3-chloro-2-fluorophenyl)-1H-1,2,3-triazole-4-carbonyl)-1,2,3,4-tetrahydroisoquinoline-1-carboxamido)benzoic acid, TFA salt] | < 5 nM | – |
| O=C(O)c1ccc(NC(=O)C2c3cccc(-c4ccc5nccnc5c4)c3CCN2C(=O)c2cn(-c3cccc(Cl)c3F)nn2)cc1 (stereo not drawn) [Example 174, 4-(2-(1-(3-chloro-2-fluorophenyl)-1H-1,2,3-triazole-4-carbonyl)-5-(quinoxalin-6-yl)-1,2,3,4-tetrahydroisoquinoline-1-carboxamido)benzoic acid] | < 5 nM | – |
| O=C(O)c1ccc(NC(=O)C2c3cccc(-c4ccc5occc(=O)c5c4)c3CCN2C(=O)c2cn(-c3cccc(Cl)c3F)nn2)cc1 (stereo not drawn) [Example 175, 4-(2-(1-(3-chloro-2-fluorophenyl)-1H-1,2,3-triazole-4-carbonyl)-5-(4-oxo-4H-chromen-6-yl)-1,2,3,4-tetrahydroisoquinoline-1-carboxamido)benzoic acid] | < 5 nM | – |
| O=C(O)c1ccc(NC(=O)C2c3cccc(-c4ccc(S(=O)(=O)NC5CC5)cc4)c3CCN2C(=O)c2cn(-c3cccc(Cl)c3F)nn2)cc1 (stereo not drawn) [Example 176, 4-(2-(1-(3-chloro-2-fluorophenyl)-1H-1,2,3-triazole-4-carbonyl)-5-(4-(N-cyclopropylsulfamoyl)phenyl)-1,2,3,4-tetrahydroisoquinoline-1-carboxamido)benzoic acid] | < 5 nM | – |
| CN(C)S(=O)(=O)c1cccc(-c2cccc3c2CCN(C(=O)c2cn(-c4cccc(Cl)c4F)nn2)C3C(=O)Nc2ccc(C(=O)O)cc2)c1 (stereo not drawn) [Example 177, 4-(2-(1-(3-chloro-2-fluorophenyl)-1H-1,2,3-triazole-4-carbonyl)-5-(3-(N,N-dimethylsulfamoyl)phenyl)-1,2,3,4-tetrahydroisoquinoline-1-carboxamido)benzoic acid] | < 5 nM | – |
| CCOc1ccc(-c2cccc3c2CCN(C(=O)c2cn(-c4cccc(Cl)c4F)nn2)C3C(=O)Nc2ccc(C(=O)O)cc2)cn1 (stereo not drawn) [Example 178, 4-(2-(1-(3-chloro-2-fluorophenyl)-1H-1,2,3-triazole-4-carbonyl)-5-(6-ethoxypyridin-3-yl)-1,2,3,4-tetrahydroisoquinoline-1-carboxamido)benzoic acid, TFA salt] | < 5 nM | – |
| O=C(O)c1ccc(NC(=O)C2c3cccc(-c4ccccc4CN4CCOCC4)c3CCN2C(=O)c2cn(-c3cccc(Cl)c3F)nn2)cc1 (stereo not drawn) [Example 179, 4-(2-(1-(3-chloro-2-fluorophenyl)-1H-1,2,3-triazole-4-carbonyl)-5-(2-(morpholinomethyl)phenyl)-1,2,3,4-tetrahydroisoquinoline-1-carboxamido)benzoic acid, TFA salt] | 5.92 nM | – |
| COc1cccc(-c2cccc3c2CCN(C(=O)c2cn(-c4cccc(Cl)c4F)nn2)C3C(=O)Nc2ccc(C(=O)O)cc2)c1F (stereo not drawn) [Example 180, 4-(2-(1-(3-chloro-2-fluorophenyl)-1H-1,2,3-triazole-4-carbonyl)-5-(2-fluoro-3-methoxyphenyl)-1,2,3,4-tetrahydroisoquinoline-1-carboxamido)benzoic acid] | – | 5.2 nM |
